Legend:
Assay in all cases: biochemical
Design in all cases: species or system HEK293/K-562/placenta mixed human extract; Kinobeads chemoproteomic competition binding, quantified by TMT LC-MS/MS, dose response up to 20 uM
AAK1 = AAK1 (Homo sapiens, UniProt Q2M2I8)
ABL2 = ABL2 (Homo sapiens, UniProt P42684)
AURKB = AURKB (Homo sapiens, UniProt Q96GD4)
AZI2 = AZI2 (Homo sapiens, UniProt Q9H6S1)
BMPR1A = BMPR1A (Homo sapiens, UniProt P36894)
CHEK1 = CHEK1 (Homo sapiens, UniProt O14757)
CLK2 = CLK2 (Homo sapiens, UniProt P49760)
DCK = DCK (Homo sapiens, UniProt P27707)
Sequence of DCK (P27707 whole entry): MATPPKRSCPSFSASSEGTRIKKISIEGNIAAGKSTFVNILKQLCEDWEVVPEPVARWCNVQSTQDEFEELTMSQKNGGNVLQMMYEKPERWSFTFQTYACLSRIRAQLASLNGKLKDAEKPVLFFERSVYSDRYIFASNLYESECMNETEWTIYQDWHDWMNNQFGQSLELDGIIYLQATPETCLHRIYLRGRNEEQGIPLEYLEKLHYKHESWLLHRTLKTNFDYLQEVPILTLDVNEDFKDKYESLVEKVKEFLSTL

EPHA3 = EPHA3 (Homo sapiens, UniProt P29320)
Sequence of EPHA3 (P29320 whole entry): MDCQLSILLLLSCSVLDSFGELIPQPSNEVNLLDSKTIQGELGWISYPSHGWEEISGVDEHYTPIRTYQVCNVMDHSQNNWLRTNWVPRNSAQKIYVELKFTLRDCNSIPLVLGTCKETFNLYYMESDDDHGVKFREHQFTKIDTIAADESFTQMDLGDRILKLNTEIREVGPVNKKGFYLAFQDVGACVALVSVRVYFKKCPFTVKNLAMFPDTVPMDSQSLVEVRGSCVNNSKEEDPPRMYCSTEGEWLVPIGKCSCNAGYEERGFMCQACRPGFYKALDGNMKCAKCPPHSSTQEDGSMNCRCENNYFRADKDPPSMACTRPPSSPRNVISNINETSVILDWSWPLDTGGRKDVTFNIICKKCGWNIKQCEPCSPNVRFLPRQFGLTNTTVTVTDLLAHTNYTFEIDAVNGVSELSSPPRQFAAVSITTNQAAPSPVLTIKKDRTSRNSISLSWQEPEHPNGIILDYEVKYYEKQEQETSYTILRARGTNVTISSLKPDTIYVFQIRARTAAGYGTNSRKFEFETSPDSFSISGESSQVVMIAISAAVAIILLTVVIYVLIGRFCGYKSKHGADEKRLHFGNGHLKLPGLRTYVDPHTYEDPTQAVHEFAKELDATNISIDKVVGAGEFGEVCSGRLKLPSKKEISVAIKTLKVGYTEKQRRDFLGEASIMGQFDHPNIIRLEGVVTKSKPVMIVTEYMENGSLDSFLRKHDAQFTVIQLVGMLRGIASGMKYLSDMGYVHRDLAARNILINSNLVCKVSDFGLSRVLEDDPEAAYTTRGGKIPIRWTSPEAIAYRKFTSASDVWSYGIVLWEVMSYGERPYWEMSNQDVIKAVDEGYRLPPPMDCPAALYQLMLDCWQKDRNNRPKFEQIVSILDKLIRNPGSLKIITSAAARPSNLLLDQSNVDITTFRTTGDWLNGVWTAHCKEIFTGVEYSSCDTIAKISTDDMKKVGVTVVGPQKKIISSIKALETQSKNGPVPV

ERN1 = ERN1 (Homo sapiens, UniProt O75460)
GSK3A = GSK3A (Homo sapiens, UniProt P49840)
IKBKG = IKBKG (Homo sapiens, UniProt Q9Y6K9)
LIMK2 = LIMK2 (Homo sapiens, UniProt P53671)
MAP3K6 = MAP3K6 (Homo sapiens, UniProt O95382)
MAP4K3 = MAP4K3 (Homo sapiens, UniProt Q8IVH8)
Sequence of MAP4K3 (Q8IVH8 whole entry): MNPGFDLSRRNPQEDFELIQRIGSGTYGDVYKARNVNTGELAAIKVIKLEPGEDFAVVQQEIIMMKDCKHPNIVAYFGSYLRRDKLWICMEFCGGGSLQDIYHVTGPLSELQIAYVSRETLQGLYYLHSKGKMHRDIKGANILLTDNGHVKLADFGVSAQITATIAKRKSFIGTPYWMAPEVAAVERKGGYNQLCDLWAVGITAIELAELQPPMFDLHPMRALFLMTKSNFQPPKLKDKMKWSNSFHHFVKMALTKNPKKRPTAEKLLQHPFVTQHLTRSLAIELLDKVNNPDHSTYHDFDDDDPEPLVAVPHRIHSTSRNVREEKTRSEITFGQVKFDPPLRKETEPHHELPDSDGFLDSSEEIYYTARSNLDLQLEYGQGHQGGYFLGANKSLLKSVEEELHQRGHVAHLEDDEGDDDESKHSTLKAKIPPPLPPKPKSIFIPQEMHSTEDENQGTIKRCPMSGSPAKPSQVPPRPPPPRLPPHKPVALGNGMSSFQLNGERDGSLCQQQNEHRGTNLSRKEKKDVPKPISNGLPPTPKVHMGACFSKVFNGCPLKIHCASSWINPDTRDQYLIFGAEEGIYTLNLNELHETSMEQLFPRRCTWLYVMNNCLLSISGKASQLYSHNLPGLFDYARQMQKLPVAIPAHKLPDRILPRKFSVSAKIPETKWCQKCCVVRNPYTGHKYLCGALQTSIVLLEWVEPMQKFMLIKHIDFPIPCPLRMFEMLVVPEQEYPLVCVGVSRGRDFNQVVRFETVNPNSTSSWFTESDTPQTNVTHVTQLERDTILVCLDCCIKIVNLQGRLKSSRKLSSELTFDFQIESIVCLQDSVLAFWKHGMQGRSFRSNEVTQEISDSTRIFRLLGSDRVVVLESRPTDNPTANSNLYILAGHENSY

MAST3 = MAST3 (Homo sapiens, UniProt O60307)
Sequence of MAST3 (O60307 whole entry): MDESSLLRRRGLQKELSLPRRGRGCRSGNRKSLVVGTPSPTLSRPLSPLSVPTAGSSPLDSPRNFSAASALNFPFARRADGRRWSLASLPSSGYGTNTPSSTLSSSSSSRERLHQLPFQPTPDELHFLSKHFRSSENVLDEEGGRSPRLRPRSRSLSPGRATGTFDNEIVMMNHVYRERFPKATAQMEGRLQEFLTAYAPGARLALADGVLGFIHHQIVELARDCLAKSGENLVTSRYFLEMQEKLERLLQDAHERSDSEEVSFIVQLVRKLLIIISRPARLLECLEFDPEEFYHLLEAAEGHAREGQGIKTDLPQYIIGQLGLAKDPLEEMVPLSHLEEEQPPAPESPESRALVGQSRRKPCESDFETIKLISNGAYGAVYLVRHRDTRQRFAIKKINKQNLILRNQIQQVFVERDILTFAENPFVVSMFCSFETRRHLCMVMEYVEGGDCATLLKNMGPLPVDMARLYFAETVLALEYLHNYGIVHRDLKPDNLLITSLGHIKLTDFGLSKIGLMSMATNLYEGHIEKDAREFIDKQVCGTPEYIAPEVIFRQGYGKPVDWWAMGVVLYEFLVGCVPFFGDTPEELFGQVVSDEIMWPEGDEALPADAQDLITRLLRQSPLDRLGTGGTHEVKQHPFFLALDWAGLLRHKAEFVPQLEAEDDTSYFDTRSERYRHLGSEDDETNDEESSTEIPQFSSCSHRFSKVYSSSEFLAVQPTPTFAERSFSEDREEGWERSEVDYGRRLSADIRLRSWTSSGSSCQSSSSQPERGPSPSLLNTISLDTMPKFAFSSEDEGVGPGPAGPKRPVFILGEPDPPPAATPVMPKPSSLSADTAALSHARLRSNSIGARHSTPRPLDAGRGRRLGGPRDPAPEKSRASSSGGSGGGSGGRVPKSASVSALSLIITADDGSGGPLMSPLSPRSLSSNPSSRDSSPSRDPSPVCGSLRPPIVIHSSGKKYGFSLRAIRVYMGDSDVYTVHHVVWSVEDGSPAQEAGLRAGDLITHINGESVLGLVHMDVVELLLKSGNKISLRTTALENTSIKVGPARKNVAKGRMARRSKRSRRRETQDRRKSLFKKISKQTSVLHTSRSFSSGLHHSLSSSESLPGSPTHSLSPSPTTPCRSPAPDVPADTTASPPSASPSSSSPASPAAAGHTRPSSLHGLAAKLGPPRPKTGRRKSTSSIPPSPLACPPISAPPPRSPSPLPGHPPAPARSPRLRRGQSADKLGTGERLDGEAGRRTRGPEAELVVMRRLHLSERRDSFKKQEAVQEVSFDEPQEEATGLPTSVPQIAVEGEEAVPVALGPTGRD

NEK7 = NEK7 (Homo sapiens, UniProt Q8TDX7)
PRKAA1 = PRKAA1 (Homo sapiens, UniProt Q13131)
Sequence of PRKAA1 (Q13131 whole entry): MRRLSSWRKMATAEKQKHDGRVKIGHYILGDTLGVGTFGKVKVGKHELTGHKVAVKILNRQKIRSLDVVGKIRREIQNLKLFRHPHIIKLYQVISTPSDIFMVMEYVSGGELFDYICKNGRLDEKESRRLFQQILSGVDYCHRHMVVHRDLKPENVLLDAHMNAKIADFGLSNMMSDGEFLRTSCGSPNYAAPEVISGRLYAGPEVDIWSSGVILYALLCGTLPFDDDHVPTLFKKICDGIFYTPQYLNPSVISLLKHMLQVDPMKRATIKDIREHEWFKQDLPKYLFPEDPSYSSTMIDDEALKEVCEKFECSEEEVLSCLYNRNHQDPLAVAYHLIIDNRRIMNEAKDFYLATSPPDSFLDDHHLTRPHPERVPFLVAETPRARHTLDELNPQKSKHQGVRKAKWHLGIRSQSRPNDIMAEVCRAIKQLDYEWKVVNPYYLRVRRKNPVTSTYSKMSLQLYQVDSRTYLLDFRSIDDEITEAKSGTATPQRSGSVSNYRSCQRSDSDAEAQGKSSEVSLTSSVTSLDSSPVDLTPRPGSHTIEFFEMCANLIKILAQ

PRKCA = PRKCA (Homo sapiens, UniProt P17252)
STK17A = STK17A (Homo sapiens, UniProt Q9UEE5)
Sequence of STK17A (Q9UEE5 whole entry): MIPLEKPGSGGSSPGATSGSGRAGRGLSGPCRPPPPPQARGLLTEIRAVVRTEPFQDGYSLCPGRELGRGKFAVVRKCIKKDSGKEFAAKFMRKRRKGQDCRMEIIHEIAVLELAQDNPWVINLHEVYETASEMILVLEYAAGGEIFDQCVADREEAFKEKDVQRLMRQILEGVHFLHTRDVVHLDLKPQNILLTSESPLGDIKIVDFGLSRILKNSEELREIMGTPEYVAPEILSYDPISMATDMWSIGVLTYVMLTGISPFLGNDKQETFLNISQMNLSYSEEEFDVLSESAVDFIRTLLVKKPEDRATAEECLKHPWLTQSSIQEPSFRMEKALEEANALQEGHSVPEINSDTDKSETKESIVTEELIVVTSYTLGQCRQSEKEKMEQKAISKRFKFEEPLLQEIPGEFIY

STK35 = STK35 (Homo sapiens, UniProt Q8TDR2)

Measured: IC50

Sequence of BMPR1A (P36894 whole entry): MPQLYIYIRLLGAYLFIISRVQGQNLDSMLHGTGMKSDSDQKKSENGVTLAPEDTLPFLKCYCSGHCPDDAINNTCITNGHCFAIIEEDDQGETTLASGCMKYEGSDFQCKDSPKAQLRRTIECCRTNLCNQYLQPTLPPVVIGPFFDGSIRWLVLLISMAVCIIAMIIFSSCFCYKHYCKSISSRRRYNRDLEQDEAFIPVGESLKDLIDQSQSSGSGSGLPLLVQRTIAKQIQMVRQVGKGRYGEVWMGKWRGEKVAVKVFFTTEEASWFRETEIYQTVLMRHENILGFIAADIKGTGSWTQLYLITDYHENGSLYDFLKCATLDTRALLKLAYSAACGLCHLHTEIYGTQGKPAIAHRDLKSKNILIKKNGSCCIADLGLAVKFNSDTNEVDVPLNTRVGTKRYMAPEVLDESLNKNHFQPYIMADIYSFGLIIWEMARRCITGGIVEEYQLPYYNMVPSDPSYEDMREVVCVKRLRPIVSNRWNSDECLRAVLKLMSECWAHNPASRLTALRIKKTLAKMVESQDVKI

COc1nc(N[C@H]2CC[C@H](NS(=O)(=O)CC(C)C)CC2)nc2[nH]nc(N3CCOC[C@H]3C)c12 [compound 39, N-(trans-4-((4-Methoxy-3-((R)-3-methylmorpholino)-1H-pyrazolo[3,4-d]pyrimidin-6-yl)amino)cyclohexyl)-2-methylpropane-1-sulfonamide]
≥ 20 µM: all assays above

Reference: article PMC6407917, “Identification of GSK3186899/DDD853651 as a Preclinical Development Candidate for the Treatment of Visceral Leishmaniasis” (Journal of Medicinal Chemistry, 2018)
